Data reported in paper PMC1084349 (BMC Neuroscience, 2005).
Where a SMILES comes first, the peptide text is derived from it.

Target: T1, rTas1r2-rTas1r3 V738A (Rattus norvegicus, UniProt Q923K1+Q9Z0R7, V738A)
T1 construct: expressed in transfected cells; host or cells: HEK293T cells stably expressing Gα16gust44
T1 sequence (Q9Z0R7 20-843): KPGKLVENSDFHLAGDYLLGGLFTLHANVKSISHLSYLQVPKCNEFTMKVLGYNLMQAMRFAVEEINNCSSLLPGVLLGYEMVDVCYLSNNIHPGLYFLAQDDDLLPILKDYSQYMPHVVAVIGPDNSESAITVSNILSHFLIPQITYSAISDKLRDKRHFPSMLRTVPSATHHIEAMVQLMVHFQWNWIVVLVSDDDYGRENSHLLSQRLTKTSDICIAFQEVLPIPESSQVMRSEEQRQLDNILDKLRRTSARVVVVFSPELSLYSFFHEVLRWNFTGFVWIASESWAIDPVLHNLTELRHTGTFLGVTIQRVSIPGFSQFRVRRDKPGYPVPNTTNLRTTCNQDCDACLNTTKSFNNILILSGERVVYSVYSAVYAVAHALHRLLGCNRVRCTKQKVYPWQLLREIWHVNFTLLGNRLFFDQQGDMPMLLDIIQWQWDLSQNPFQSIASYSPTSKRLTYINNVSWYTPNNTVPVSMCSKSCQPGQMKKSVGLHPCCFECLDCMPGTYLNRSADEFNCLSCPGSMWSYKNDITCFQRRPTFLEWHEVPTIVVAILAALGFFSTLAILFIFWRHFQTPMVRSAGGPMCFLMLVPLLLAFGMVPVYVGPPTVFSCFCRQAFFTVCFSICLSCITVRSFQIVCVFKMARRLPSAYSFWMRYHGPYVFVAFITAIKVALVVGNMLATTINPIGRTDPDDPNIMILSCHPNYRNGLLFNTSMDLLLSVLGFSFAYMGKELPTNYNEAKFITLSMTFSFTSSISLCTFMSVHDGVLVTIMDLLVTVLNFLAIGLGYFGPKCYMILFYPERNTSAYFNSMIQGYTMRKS
T1 sequence (Q923K1 21-858 V738A): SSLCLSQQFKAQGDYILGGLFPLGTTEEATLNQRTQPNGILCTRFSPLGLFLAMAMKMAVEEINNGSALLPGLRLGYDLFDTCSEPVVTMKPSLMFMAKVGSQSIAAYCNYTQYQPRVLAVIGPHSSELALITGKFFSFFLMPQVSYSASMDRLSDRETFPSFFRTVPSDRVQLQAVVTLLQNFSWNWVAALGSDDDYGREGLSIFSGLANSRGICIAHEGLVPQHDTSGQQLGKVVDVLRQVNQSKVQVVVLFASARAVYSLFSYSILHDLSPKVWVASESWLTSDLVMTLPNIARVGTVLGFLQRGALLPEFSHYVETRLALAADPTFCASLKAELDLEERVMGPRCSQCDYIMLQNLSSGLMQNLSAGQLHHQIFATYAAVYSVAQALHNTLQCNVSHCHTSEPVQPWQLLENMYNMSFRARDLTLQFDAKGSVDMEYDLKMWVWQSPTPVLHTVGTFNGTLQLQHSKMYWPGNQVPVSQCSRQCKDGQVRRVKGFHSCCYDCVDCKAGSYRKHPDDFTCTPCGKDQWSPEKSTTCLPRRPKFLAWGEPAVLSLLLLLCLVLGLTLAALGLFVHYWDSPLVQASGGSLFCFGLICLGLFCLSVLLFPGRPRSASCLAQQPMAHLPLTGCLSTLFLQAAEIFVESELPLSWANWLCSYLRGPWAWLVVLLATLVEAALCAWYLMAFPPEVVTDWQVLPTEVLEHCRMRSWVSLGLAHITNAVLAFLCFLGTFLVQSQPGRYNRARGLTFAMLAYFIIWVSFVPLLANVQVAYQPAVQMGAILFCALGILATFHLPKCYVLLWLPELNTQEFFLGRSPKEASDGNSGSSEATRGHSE
Experiment: Calcium mobilization (FLIPR), rTas1r3-V738A variant
Assay type: cell-based
Conditions: asp 15 mM; cyc 30 mM; neo 0.1 mM; sac 10 mM; suc 100 mM; stev 1 mM
From the text: Receptor mutants were generated by site directed mutagenesis according to the QuikChange protocol (Stratagene). The forward and reverse complement primers contained the desired mutations and annealed to the same sequence on opposite strands of the plasmids. The following rTas1r3 receptor variants were generated: m1: S576L; m2: R632Q, S635P, S637Q; m3: M644L A645S; m4: A702T; m5: Q717H, V718M, V723A, E725V; m6: L735F, V738A, I740A. m6/1: V738A, I740A, m6/2: L735F, I740A, m6/3: L735F, V738A. m7: A793V, Y794L, Q795R. Subsequently a rTas1r3-V738A variant was generated. All constructs were checked by sequencing.
The cDNAs were transiently transfected into HEK293T cells stably expressing the chimeric G-protein subunit Gα16gust44 [20] using Lipofectamine 2000 (Invitrogen) according to the manufacturer's protocol. 3–4 hours after transfection, DMEM was replaced by low-glucose DMEM supplemented with GlutaMAX and 10% dialyzed FBS (Invitrogen). 22–44 hours later, cells were loaded for 1 hour with the calcium sensitive dye Fluo4-AM (2 μg/ml in DMEM, Molecular Probes). […] Calcium mobilization was monitored by an automated fluorometric imaging plate reader (FLIPR, Molecular Devices). Ligands (Sigma-Aldrich, Merck) were dissolved in C1 solution. All data were collected from at least two independent experiments carried out in triplicate. The obtained calcium signals were corrected for the response of mock transfected cells and normalized to the fluorescence of cells prior to the stimulus using ΔF/F=(F-F0)/F0.
(a, b) Responses of cells co-transfected with rTas1r2 and rTas1r3 mutants to stimulation with 1 mM stevioside. […] All sweeteners were used at concentrations which were close to the maximal obtainable signal.

Row | Structure (SMILES) | activation of receptor (calcium response)
1 | COC(=O)[C@H](Cc1ccccc1)NC(=O)[C@@H](N)CC(=O)O [aspartame] (HELM PEPTIDE1{D.F.[CO[*:1]]}$$$$V2.0) | not
2 | O=S(=O)(O)NC1CCCCC1 [cyclamate] | not
3 | COc1ccc(CCC(=O)c2c(O)cc(O[C@@H]3O[C@H](CO)[C@@H](O)[C@H](O)[C@H]3O[C@@H]3O[C@@H](C)[C@H](O)[C@@H](O)[C@H]3O)cc2O)cc1O [neohesperidine dihydrochalcone] | not
4 | C=C1C[C@@]23CC[C@H]4[C@@](C)(CCC[C@@]4(C)C(=O)O[C@@H]4O[C@H](CO)[C@@H](O)[C@H](O)[C@H]4O)[C@@H]2CC[C@]1(O[C@@H]1O[C@H](CO)[C@@H](O)[C@H](O)[C@H]1O[C@@H]1O[C@H](CO)[C@@H](O)[C@H](O)[C@H]1O)C3 [stevioside] | activated
5 | OC[C@H]1O[C@@](CO)(O[C@H]2O[C@H](CO)[C@@H](O)[C@H](O)[C@H]2O)[C@@H](O)[C@@H]1O [sucrose] | activated
